Melting point data for ten molecules are collected here from patent US20090143426A1, “Synthesis of 1,3,6-trisubstituted-2-carboxyquinol-4-ones as selective ET A antagonists and their use as medicaments” (priority 2007, published 2009).

A word on the melting point: it is the temperature of the solid-liquid transition.

In turn, `CCOC(=O)c1cccc(Cc2c(C(=O)OCC)n(Cc3cc4c(cc3CC)OCO4)c3ccc(O)cc3c2=O)c1` [Product 1a, Ethyl 3-(3-(ethoxycarbonyl)benzyl)-1-((6-ethylbenzo[d][1,3]dioxol-5-yl)methyl)-6-hydroxy-4-oxo-1,4-dihydroquinoline-2-carboxylate] displayed a melting point of 232 to 234 °C.

On to `CCOC(=O)c1cccc(Cc2c(C(=O)OCC)n(Cc3cc4c(cc3CC)OCO4)c3ccc(OCC)cc3c2=O)c1` [Product 1b, Ethyl 6-ethoxy-3-(3-(ethoxycarbonyl)benzyl)-1-((6-ethylbenzo[d][1,3]dioxol-5-yl)methyl)-4-oxo-1,4-dihydroquinoline-2-carboxylate], for which the melting point fell in the range of 124 to 126 °C. For `CCCOc1ccc2c(c1)c(=O)c(Cc1cccc(C(=O)OCC)c1)c(C(=O)OCC)n2Cc1cc2c(cc1CC)OCO2` [Product 1c, Ethyl 3-(3-(ethoxycarbonyl)benzyl)-1-((6-ethylbenzo[d][1,3]dioxol-5-yl)methyl)-4-oxo-6-propoxy-1,4-dihydroquinoline-2-carboxylate], the melting point fell in the range of 134 to 135 °C. Molecule `CCOC(=O)c1cccc(Cc2c(C(=O)OCC)n(Cc3cc4c(cc3CC)OCO4)c3ccc(OC(C)C)cc3c2=O)c1` [Product 1d, Ethyl 3-(3-(ethoxycarbonyl)benzyl)-1-((6-ethylbenzo[d][1,3]dioxol-5-yl)methyl)-6-isopropoxy-4-oxo-1,4-dihydroquinoline-2-carboxylate] had a melting point of 124 to 126 °C. Regarding `C=CCOc1ccc2c(c1)c(=O)c(Cc1cccc(C(=O)OCC)c1)c(C(=O)OCC)n2Cc1cc2c(cc1CC)OCO2` [Product 1e, Ethyl 6-(allyloxy)-3-(3-(ethoxycarbonyl)benzyl)-1-((6-ethylbenzo[d][1,3]dioxol-5-yl)methyl)-4-oxo-1,4-dihydroquinoline-2-carboxylate], the melting point was in the range of 128 to 131 °C. For the molecule `CCCCOc1ccc2c(c1)c(=O)c(Cc1cccc(C(=O)OCC)c1)c(C(=O)OCC)n2Cc1cc2c(cc1CC)OCO2` [Product 1g, Ethyl 6-butoxy-3-(3-(ethoxycarbonyl)benzyl)-1-((6-ethylbenzo[d][1,3]dioxol-5-yl)methyl)-4-oxo-1,4-dihydroquinoline-2-carboxylate], the melting point fell in the range of 147 to 150 °C. As to `CCOC(=O)c1cccc(Cc2c(C(=O)OCC)n(Cc3cc4c(cc3CC)OCO4)c3ccc(OCC(C)C)cc3c2=O)c1` [Product 1h, Ethyl 3-(3-(ethoxycarbonyl)benzyl)-1-((6-ethylbenzo[d][1,3]dioxol-5-yl)methyl)-6-isobutoxy-4-oxo-1,4-dihydroquinoline-2-carboxylate], the melting point is 129 to 132 °C. Take `CCOC(=O)c1cccc(Cc2c(C(=O)OCC)n(Cc3cc4c(cc3CC)OCO4)c3ccc(OC(C)CC)cc3c2=O)c1` (stereo not shown) [Product 1i, Ethyl 6-sec-butoxy-3-(3-(ethoxycarbonyl)benzyl)-1-((6-ethylbenzo[d][1,3]dioxol-5-yl)methyl)-4-oxo-1,4-dihydroquinoline-2-carboxylate]: the melting point was in the range of 129 to 132 °C. Consider `CCCCCOc1ccc2c(c1)c(=O)c(Cc1cccc(C(=O)OCC)c1)c(C(=O)OCC)n2Cc1cc2c(cc1CC)OCO2` [Product 1k, Ethyl 3-(3-(ethoxycarbonyl)benzyl)-1-((6-ethylbenzo[d][1,3]dioxol-5-yl)methyl)-4-oxo-6-(pentyloxy)-1,4-dihydroquinoline-2-carboxylate], for which the melting point fell in the range of 98 to 99 °C. Molecule `CCOC(=O)c1cccc(Cc2c(C(=O)OCC)n(Cc3cc4c(cc3CC)OCO4)c3ccc(OCCCO)cc3c2=O)c1` [Product 1l, Ethyl 3-(3-(ethoxycarbonyl)benzyl)-1-((6-ethylbenzo[d][1,3]dioxol-5-yl)methyl)-6-(3-hydroxypropoxy)-4-oxo-1,4-dihydroquinoline-2-carboxylate] registered a melting point of 129 to 132 °C.
